Measured values published in ChEMBL document CHEMBL3856204, “Chiral 6-aryl-furo[2,3-d]pyrimidin-4-amines as EGFR inhibitors” (Eur J Med Chem, 2016).
pIC50: −log10 of the molar value.

Columns and labels:
[1] = biological target: Protein kinase C alpha type (Homo sapiens) (UniProt P17252); assay: Inhibition of recombinant full length human PRKCA expressed in baculovirus at 500 nM by Z'-LYTE assay
[2] = biological target: Protein kinase C beta type (Homo sapiens) (UniProt P05771); assay: Inhibition of recombinant full length human PRKCB1 expressed in baculovirus at 500 nM by Z'-LYTE assay
[3] = biological target: Epidermal growth factor receptor (Homo sapiens, UniProt P00533); assay: Inhibition of recombinant human GST-tagged EGFR cytoplasmic domain (668 to 1210 residues) expressed in baculovirus by Z'-LYTE assay
[4] = biological target: Tyrosine-protein kinase ABL1 (Homo sapiens) (UniProt P00519); assay: Inhibition of His tagged recombinant full length human ABL1 expressed in baculovirus at 500 nM by Z'-LYTE assay
[5] = biological target: Tyrosine-protein kinase Blk (Homo sapiens) (UniProt P51451); assay: Inhibition of His tagged recombinant full length human BLK expressed in baculovirus at 500 nM by Z'-LYTE assay
[6] = biological target: Serine/threonine-protein kinase B-raf (Homo sapiens) (UniProt P15056); assay: Inhibition of GST tagged recombinant full length human BRAF expressed in baculovirus at 500 nM by Z'-LYTE assay
[7] = biological target: Macrophage colony-stimulating factor 1 receptor (Homo sapiens) (UniProt P07333); assay: Inhibition of His tagged recombinant human FMS cytoplasmic domain (538 to 910 residues) expressed in baculovirus at 500 nM by Z'-LYTE assay
[8] = biological target: Tyrosine-protein kinase CSK (Homo sapiens) (UniProt P41240); assay: Inhibition of His tagged recombinant full length human CSK expressed in Escherichia coli at 500 nM by Z'-LYTE assay
[9] = biological target: Receptor tyrosine-protein kinase erbB-2 (Homo sapiens) (UniProt P04626); assay: Inhibition of His tagged recombinant human ErbB2 cytoplasmic domain (676 to 1255 residues) expressed in baculovirus at 500 nM by Z'-LYTE assay
[10] = biological target: Vascular endothelial growth factor receptor 1 (Homo sapiens) (UniProt P17948); assay: Inhibition of GST tagged recombinant human FLT1 cytoplasmic domain (781 to 1338 residues) expressed in baculovirus at 500 nM by Z'-LYTE assay
[11] = biological target: Vascular endothelial growth factor receptor 3 (Homo sapiens) (UniProt P35916); assay: Inhibition of GST tagged recombinant human FLT4 cytoplasmic domain (800 to 1297 residues) expressed in baculovirus at 500 nM by Z'-LYTE assay
[12] = biological target: Tyrosine-protein kinase Fyn (Homo sapiens) (UniProt P06241); assay: Inhibition of recombinant full length human C-terminal His-tagged FYN expressed in baculovirus at 500 nM by Z'-LYTE assay
[13] = biological target: Mast/stem cell growth factor receptor Kit (Homo sapiens) (UniProt P10721); assay: Inhibition of His tagged recombinant human KIT cytoplasmic domain (544 to 976 residues) expressed in baculovirus at 500 nM by Z'-LYTE assay
[14] = biological target: Tyrosine-protein kinase Lyn (Homo sapiens) (UniProt P07948); assay: Inhibition of His tagged C-terminal recombinant full length human LYN B expressed in baculovirus at 500 nM by Z'-LYTE assay
[15] = biological target: Mitogen-activated protein kinase 1 (Homo sapiens) (UniProt P28482); assay: Inhibition of GST tagged recombinant full length human ERK2 expressed in Escherichia coli at 500 nM by Z'-LYTE assay
[16] = biological target: Mitogen-activated protein kinase 14 (Homo sapiens) (UniProt Q16539); assay: Inhibition of GST tagged recombinant full length human p38 alpha expressed in Escherichia coli at 500 nM by Z'-LYTE assay
[17] = biological target: Proto-oncogene tyrosine-protein kinase receptor Ret (Homo sapiens) (UniProt P07949); assay: Inhibition of GST tagged recombinant human RET cytoplasmic domain (658 to 1114 residues) expressed in baculovirus at 500 nM by Z'-LYTE assay
[18] = biological target: Proto-oncogene tyrosine-protein kinase Src (Homo sapiens) (UniProt P12931); assay: Inhibition of recombinant full length human C-terminal His-tagged SRC expressed in baculovirus at 500 nM by Z'-LYTE assay
[19] = biological target: Angiopoietin-1 receptor (Homo sapiens) (UniProt Q02763); assay: Inhibition of GST tagged recombinant human Tie2 cytoplasmic domain (817 to 1101 residues) expressed in baculovirus at 500 nM by Z'-LYTE assay
[20] = biological target: Tyrosine-protein kinase JAK2 (Homo sapiens) (UniProt O60674); assay: Inhibition of GST tagged recombinant human JAK2 (809 to 1153 + 9 residues) expressed in baculovirus at 500 nM by Z'-LYTE assay
[21] = biological target: Serine/threonine-protein kinase pim-2 (Homo sapiens) (UniProt Q9P1W9); assay: Inhibition of GST tagged recombinant full length human PIM2 expressed in baculovirus at 500 nM by Z'-LYTE assay

Sequence of Tyrosine-protein kinase ABL1 (Homo sapiens) (P00519 whole entry): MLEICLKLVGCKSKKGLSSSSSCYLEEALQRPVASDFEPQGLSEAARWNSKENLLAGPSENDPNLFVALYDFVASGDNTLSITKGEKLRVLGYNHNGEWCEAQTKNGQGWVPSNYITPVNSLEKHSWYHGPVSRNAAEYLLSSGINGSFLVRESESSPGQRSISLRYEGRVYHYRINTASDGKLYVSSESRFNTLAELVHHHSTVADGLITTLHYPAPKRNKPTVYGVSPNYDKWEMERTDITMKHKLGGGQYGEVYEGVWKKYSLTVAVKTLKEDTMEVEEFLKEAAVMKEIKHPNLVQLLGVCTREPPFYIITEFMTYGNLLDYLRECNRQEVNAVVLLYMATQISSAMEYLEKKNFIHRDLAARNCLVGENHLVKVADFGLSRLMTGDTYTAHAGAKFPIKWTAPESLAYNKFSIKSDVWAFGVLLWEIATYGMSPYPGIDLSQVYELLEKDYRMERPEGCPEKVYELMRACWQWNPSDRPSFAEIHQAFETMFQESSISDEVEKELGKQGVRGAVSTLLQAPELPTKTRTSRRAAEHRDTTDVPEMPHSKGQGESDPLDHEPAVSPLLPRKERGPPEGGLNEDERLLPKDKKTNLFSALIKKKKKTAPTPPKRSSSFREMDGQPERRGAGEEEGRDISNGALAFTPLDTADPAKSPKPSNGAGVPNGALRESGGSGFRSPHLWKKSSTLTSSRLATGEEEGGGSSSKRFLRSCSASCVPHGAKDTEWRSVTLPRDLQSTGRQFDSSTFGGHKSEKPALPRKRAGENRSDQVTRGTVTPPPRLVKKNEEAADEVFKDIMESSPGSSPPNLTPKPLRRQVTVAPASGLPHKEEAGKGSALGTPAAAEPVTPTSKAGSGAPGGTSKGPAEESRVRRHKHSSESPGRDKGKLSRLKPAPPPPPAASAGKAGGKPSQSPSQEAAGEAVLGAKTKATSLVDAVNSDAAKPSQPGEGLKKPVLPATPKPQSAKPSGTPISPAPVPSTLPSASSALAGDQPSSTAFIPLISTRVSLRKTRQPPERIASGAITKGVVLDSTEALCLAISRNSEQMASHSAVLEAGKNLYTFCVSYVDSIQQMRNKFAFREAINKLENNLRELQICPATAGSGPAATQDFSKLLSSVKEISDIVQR
Sequence of Macrophage colony-stimulating factor 1 receptor (Homo sapiens) (P07333 whole entry, the tested form may be a part): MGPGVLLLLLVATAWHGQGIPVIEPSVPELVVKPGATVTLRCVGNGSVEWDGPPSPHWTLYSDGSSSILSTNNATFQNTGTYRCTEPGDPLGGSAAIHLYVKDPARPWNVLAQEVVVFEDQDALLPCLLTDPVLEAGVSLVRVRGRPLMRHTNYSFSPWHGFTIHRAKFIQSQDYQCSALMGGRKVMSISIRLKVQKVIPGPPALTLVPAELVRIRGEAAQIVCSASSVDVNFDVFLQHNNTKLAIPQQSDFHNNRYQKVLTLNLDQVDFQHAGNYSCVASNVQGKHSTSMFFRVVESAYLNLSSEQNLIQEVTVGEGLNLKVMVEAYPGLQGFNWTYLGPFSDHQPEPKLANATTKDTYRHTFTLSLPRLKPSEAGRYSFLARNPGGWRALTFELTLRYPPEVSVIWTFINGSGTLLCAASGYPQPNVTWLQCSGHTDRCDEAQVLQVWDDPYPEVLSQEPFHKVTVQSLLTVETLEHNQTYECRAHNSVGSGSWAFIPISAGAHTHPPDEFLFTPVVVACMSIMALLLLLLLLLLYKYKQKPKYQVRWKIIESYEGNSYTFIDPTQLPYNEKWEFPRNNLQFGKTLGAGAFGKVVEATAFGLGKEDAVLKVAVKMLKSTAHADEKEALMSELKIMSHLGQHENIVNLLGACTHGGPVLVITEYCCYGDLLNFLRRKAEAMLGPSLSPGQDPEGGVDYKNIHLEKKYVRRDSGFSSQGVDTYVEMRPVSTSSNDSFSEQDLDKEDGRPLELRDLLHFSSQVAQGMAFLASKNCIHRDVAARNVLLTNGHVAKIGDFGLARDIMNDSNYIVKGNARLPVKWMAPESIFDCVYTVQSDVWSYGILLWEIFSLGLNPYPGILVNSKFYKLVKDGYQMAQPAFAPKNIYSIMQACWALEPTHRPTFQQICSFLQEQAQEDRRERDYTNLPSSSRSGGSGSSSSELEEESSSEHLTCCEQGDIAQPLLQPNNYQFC
Sequence of Proto-oncogene tyrosine-protein kinase Src (Homo sapiens) (P12931 2-536 limits assumed): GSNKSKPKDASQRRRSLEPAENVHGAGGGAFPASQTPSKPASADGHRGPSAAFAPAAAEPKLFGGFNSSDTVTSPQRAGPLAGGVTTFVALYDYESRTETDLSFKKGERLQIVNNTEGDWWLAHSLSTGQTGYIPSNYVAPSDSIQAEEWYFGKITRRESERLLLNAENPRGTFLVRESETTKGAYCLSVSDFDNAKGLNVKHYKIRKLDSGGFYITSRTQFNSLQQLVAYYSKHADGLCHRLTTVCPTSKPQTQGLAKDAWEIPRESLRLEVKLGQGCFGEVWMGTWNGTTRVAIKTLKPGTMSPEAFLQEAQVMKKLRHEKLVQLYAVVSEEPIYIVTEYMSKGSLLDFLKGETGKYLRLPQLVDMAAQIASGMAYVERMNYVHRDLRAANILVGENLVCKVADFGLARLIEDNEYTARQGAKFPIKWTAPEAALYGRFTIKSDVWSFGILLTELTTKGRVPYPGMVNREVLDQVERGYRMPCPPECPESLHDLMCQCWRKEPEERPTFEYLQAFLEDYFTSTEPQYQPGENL
Sequence of Angiopoietin-1 receptor (Homo sapiens) (Q02763 whole entry, the tested form may be a part): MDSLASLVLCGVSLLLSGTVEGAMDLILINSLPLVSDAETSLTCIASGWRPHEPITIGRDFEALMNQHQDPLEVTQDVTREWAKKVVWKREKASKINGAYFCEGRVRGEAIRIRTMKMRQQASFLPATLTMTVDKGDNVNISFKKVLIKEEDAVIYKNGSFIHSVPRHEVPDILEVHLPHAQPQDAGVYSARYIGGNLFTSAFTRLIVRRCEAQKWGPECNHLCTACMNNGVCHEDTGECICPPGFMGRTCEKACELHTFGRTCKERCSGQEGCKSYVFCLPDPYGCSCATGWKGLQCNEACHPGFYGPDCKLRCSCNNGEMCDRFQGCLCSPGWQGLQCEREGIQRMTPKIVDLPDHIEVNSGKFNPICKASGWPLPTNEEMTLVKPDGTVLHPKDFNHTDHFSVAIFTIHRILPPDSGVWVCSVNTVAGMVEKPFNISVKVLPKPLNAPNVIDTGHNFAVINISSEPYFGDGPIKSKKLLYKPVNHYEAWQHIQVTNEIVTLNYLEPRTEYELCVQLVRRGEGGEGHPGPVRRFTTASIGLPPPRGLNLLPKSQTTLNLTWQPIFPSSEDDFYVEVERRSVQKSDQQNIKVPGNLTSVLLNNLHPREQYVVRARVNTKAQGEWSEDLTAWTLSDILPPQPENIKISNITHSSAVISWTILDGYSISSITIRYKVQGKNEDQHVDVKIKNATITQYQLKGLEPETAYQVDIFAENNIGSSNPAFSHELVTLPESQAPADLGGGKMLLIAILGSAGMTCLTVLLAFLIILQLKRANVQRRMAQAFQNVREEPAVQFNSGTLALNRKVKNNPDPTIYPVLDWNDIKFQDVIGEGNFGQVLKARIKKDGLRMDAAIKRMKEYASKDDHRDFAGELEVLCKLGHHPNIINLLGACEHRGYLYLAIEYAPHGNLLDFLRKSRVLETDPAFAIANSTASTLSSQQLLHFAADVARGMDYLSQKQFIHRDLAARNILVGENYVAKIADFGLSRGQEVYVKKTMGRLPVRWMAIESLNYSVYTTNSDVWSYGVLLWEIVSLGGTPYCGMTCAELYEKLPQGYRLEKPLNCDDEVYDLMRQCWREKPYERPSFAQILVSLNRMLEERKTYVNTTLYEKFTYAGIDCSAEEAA
Sequence of Vascular endothelial growth factor receptor 3 (Homo sapiens) (P35916 whole entry, the tested form may be a part): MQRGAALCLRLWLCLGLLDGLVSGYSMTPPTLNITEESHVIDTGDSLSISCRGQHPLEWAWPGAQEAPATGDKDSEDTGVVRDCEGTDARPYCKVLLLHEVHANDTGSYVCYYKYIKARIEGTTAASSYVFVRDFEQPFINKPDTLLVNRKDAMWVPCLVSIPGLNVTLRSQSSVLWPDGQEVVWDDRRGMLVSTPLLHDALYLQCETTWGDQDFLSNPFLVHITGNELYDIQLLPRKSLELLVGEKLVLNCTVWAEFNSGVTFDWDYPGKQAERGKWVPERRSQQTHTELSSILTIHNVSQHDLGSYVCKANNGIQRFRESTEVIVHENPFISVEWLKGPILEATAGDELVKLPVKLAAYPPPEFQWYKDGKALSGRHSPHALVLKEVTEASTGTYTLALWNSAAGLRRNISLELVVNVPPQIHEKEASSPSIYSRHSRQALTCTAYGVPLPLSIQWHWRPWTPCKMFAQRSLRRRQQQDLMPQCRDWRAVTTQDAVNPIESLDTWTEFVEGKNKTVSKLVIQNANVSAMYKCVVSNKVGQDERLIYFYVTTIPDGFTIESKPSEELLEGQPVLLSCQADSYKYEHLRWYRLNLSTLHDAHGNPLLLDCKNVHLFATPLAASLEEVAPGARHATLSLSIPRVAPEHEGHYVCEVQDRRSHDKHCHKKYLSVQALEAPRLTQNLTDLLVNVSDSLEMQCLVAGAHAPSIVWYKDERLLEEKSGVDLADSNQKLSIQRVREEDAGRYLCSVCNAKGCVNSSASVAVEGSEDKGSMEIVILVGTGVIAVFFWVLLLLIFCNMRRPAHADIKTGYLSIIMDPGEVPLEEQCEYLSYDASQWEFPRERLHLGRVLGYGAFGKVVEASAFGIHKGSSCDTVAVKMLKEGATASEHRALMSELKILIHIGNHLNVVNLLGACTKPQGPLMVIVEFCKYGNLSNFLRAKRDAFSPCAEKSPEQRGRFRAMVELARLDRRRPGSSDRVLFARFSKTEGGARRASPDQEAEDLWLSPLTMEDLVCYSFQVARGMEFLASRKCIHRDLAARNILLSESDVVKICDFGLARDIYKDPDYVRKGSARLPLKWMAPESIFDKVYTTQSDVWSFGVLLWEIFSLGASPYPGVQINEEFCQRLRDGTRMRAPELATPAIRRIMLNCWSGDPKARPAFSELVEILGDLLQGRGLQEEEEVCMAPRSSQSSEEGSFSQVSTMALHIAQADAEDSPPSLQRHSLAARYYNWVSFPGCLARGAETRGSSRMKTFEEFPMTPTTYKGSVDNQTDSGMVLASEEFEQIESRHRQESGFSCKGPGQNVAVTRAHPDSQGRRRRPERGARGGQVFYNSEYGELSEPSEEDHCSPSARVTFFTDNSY

SMILES | inhibition [1] | inhibition [2] | pIC50 [3] | inhibition [4] | inhibition [5] | inhibition [6] | inhibition [7] | inhibition [8] | inhibition [9] | inhibition [10] | inhibition [11] | inhibition [12] | inhibition [13] | inhibition [14] | inhibition [15] | inhibition [16] | inhibition [17] | inhibition [18] | inhibition [19] | also measured
C#Cc1cccc(Nc2ncnc3cc(OCCOC)c(OCCOC)cc23)c1 | 2% | -2% |  |  |  |  |  |  |  |  |  |  |  |  |  |  |  |  |  | 
C[C@@H](Nc1ncnc2oc(-c3ccc(NCCN4CCCCC4)cc3)cc12)c1ccccc1 |  |  | 9.22 | 30% | 0% | 9% | 78% | 8% | 15% | 1% | 4% | 12% | 7% | 46% | -1% | 16% | 11% | 17% | 8% | 
C[C@@H](Nc1ncnc2oc(-c3ccc(NCCN(C)C)cc3)cc12)c1ccccc1 | -9% | -10% | 9.40 | 37% | 3% | 8% | 79% | 12% | 23% | -2% | 4% | 13% | 19% | 41% | -3% | 15% | 11% | 12% | 9% | inhibition [20]: -8%; inhibition [21]: -3%
